Where two headings read alike, the source gives them in different places.

As a reminder, the IC50 is the concentration at which inhibition is half-maximal.

For assay [1], the target named is T1, IRAK4 (Homo sapiens, UniProt Q9NWZ3).
T1 construct: purchased CARNA Bioscience 09-145
T1 sequence (Q9NWZ3 1-460): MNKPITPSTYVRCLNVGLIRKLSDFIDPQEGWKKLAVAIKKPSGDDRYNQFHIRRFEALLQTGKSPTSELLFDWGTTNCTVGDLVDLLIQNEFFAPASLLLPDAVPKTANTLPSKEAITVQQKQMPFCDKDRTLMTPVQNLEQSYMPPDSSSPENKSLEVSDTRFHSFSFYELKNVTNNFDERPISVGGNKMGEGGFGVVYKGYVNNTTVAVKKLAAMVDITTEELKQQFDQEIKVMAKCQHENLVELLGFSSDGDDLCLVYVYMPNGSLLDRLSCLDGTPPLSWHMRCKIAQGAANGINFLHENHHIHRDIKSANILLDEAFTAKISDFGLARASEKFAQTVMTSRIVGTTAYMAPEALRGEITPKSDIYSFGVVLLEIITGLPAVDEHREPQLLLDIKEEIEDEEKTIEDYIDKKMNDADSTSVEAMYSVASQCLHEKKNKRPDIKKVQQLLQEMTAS
The assay is described as follows: IRAK-4 activity inhibition assay (Caliper). Format: biochemical. As to conditions: 3.5 nM IRAK4, 37 μM ATP, 1.5 μM Peptide 8. On the procedure:
A 1× kinase base buffer was prepared from 50 mM HEPES, pH 7.5 and 0.0015% Brij-35. A stop buffer was prepared from 100 mM HEPES, pH 7.5, 0.015% Brij-35, 0.2% Coating Reagent #3, and 50 mM EDTA.
Test compound was diluted to 50× of the final desired highest inhibitor concentration in reaction by 100% DMSO. 100 ul of this compound dilution was transferred to a well in a 96-well plate. For example, if desired highest inhibitor concentration in IC50 determination is 100 uM, then prepare 5000 uM of compound DMSO solution in this step.
Test compound was serially diluted by transferring 30 μl to 60 μl of 100% DMSO in the next well and so forth for a total of 10 concentrations. 100 μl of 100% DMSO was added to two empty wells for no compound control and no enzyme control in the same 96-well plate.
A new 96-well plate was marked as intermediate plate. 5 μl of compound serial dilution was transferred from source plate to the corresponding wells of the intermediate plate. 45 μl of 1× kinase base buffer (KB buffer) was added to each well of the intermediate plate. The intermediate plate was placed for 10 min on a shaker.
5 μl of each well was transferred from the 96-well intermediate plate to a 384-well plate in duplicates. For example, A1 of the 96-well plate is transferred to A1 and A2 of the 384-well plate. A2 of the 96-well plate is transferred to A3 and A4 of the 384-well plate, and so on.
IRAK4 and DTT in 1× kinase base buffer was added. The 2.5× enzyme mix contained 8.8 nM IRAK4 and 5 mM DTT.
Peptide 8, ATP, MgCl2 and MnCl2 were added in the 1× kinase base buffer. The 2.5× peptide mix contained 3.75 μM peptide 8, 92.5 μM ATP, 12.5 mM MgCl2 and 2.5 mM MnCl2.
Assay plate already contained 5 μl of compound in 10% DMSO. Added 10 μl of 2.5× enzyme solution to each well of the 384-well assay plate, except no enzyme control wells. The final concentration of IRAK4 in reaction was 3.5 nM. Added 10 μl of 1× kinase base buffer to no enzyme control wells in the assay plate. Incubated at room temperature for 10 min.
Added 10 μl of 2.5× peptide solution to each well of the 384-well assay plate. The final concentration of Peptide 8 and ATP was 1.5 μM and 37 μM, respectively. Incubated at 28° C. for 40 minutes. Added 25 μl of stop buffer to stop reaction. Collected data on Caliper.
Copied conversion % data from Caliper program. Converted conversion % values to percent inhibition values. Percent inhibition=(max-conversion %)/(max-min)*100, where “max” means the conversion % of DMSO control and “min” means the conversion % of no enzyme control.
The compound numbers correspond to the compound numbers in Table 1. Compounds having an activity designated as “A” provided an IC50≦1 μM; compounds having an activity designated as “B” provided an IC50 of 1-5 μM; compounds having an activity designated as “C” provided an IC50 of ≧5 μM. “NA” stands for “not assayed.”

The test system of assay [2] is TNFα and IL8 production in THP-1 cells. Put plainly: LPS induced cytokine (TNFα and IL8) production assay in THP-1 cells. The format is cell-based. As to conditions: Homo sapiens, 300 ng/mL LPS. On the procedure: Provided compounds were also assayed in an LPS (Lipopolysacharide) or R848 (TLR-7 agonist) induced cytokine (TNFα and IL8) production assay in THP-1 cells, human white blood cells (hWBC), and whole blood. The exemplary protocol for this assay in THP-1 cells was as follows below.
THP-1 cells from ATCC (TIB-202) were cultured in RPMI Medium 1640 (Invitrogen, Cat No. A10491-01), 10% fetal bovine serum (Invitrogen, Cat No. 10099141, Lot No. 8172882) containing 100 U/mL Penicillin, 100 μg/mL streptomycin (Invitrogen, Cat No. 15140-122), and 50 uM 2-Mercaptoethanol (Invitrogen, Cat No. 21985023). LPS-EK ultra pure (Invivogen, Cat No. tlrl-peklps) was used to induce IL8 and TNFα production, that was detected in the cell culture supernatant by IL8 HTRF kit (Cisbio, Cat No. 62IL8PEB) and TNFα HTRF kit (Cisbio, Cat No. 62TNFPEB), as per manufacturer instructions. Cells were cultured in 96 well assay plates at 100,000 cells per well, and compounds diluted in final 0.3% DMSO were pre-incubated with cells for 1 hour prior to stimulation with 300 ng/mL LPS. Cytokine production in cell supernatant was measured at 5 hours for TNFα and IL8 production, and for 16 hours for IL8 production and assessment of cell viability.
The compound numbers correspond to the compound numbers in Table 1. […] “NA” stands for “not assayed.”

[3] abbreviates: 5 hours, read-out: TNFα production IC50.
[4] abbreviates: 16 hours, read-out: IL8 (16 h) production IC50.

Regarding `Cc1nc2c(N[C@H]3CC[C@H](N4CCC5(CC4)CC5)CC3)nc(Nc3cnn(C)c3)nc2s1` [Compound I-39, N7-((1r,4r)-4-(6-azaspiro[2.5]octan-6-yl)cyclohexyl)-2-methyl-N5-(1-methyl-1H-pyrazol-4-yl)thiazolo[5,4-d]pyrimidine-5,7-diamine], the IC50 in assay [1] is at most 1000 nM; in assay [2] (setting [3]), 250 to 500 nM; in assay [2] (setting [4]) it was 250 to 500 nM.

On to `CCc1nc2c(N[C@H]3CC[C@H](N4CCC(O)CC4)CC3)nc(Nc3cnn(C4CCOCC4)c3)nc2s1` [Compound I-16], for which the 50% inhibitory concentration (IC50) in assay [1] is at most 1000 nM; in assay [2] (setting [3]), at most 250 nM.

As for `CCc1nc2c(N[C@H]3CC[C@H](N4CCOCC4)CC3)nc(Nc3cnn(CCCS(C)(=O)=O)c3)nc2s1` [Compound I-27, 2-ethyl-N5-(1-(3-(methylsulfonyl)propyl)-1H-pyrazol-4-yl)-N7-((1r,4r)-4-morpholinocyclohexyl)thiazolo[5,4-d]pyrimidine-5,7-diamine], the IC50 in assay [1] was at most 1000 nM; in assay [2] (setting [3]), 250 to 500 nM; in assay [2] (setting [4]), at most 250 nM.

`CCc1nc2c(N[C@H]3CC[C@H](N4CCOCC4)CC3)nc(Nc3cnn(C(C)C)c3)nc2s1` [Compound I-8, 2-ethyl-N5-(1-isopropyl-1H-pyrazol-4-yl)-N7-((1r,4r)-4-morpholinocyclohexyl)thiazolo[5,4-d]pyrimidine-5,7-diamine]: the IC50 in assay [1] was at most 1000 nM; in assay [2] (setting [3]), at most 250 nM; in assay [2] (setting [4]) it was at most 250 nM.

Turning to `Cc1nc2c(N[C@H]3CC[C@H](N4CCC5(CC4)COC5)CC3)nc(Nc3cnn(C)c3)nc2s1` [Compound I-42, N7-((1r,4r)-4-(2-oxa-7-azaspiro[3.5]nonan-7-yl)cyclohexyl)-2-methyl-N5-(1-methyl-1H-pyrazol-4-yl)thiazolo[5,4-d]pyrimidine-5,7-diamine], the IC50 in assay [1] is at most 1000 nM; in assay [2] (setting [3]), 250 to 500 nM; in assay [2] (setting [4]), 250 to 500 nM.

`CCc1nc2c(N[C@H]3CC[C@H](N4CCC(F)(F)CC4)CC3)nc(Nc3cnn(C4CCOCC4)c3)nc2s1` [Compound I-19, 2-ethyl-5-N-[1-(oxan-4-yl)-1H-pyrazol-4-yl]-7-N-[trans-4-(4,4-difluoropiperidin-1-yl)cyclohexyl]-[1,3]thiazolo[5,4-d]pyrimidine-5,7-diamine]: the IC50 in assay [1] is at most 1000 nM; in assay [2] (setting [3]), at most 250 nM.

In the case of `CCc1nc2c(N[C@H]3CC[C@H](N4CCOCC4)CC3)nc(Nc3cnn(CC)c3)nc2s1` [Compound I-22, 2-ethyl-N5-(1-ethyl-1H-pyrazol-4-yl)-N7-((1r,4r)-4-morpholino-cyclohexyl)thiazolo[5,4-d]pyrimidine-5,7-diamine], the IC50 in assay [1] was at most 1000 nM; in assay [2] (setting [3]), 250 to 500 nM; in assay [2] (setting [4]) it was at most 250 nM.

In the case of `CC(O)c1nc2c(N[C@H]3CC[C@H](N4CCOCC4)CC3)nc(Nc3cnn(C)c3)nc2s1` (stereo partly shown) [Compound I-35, 1-(5-((1-methyl-1H-pyrazol-4-yl)amino)-7-(((1r,4r)-4-morpholino-cyclohexyl)amino)thiazolo[5,4-d]pyrimidin-2-yl)ethan-1-ol], the values for the IC50 in assay [1], in assay [2] (setting [3]) and in assay [2] (setting [4]) were at most 1000 nM, at least 500 nM and at least 500 nM, respectively.

`Cc1nc2c(N[C@H]3CC[C@H](N4CCC(O)CC4)CC3)nc(Nc3cnn(C)c3)nc2s1` [Compound I-30, 1-((1r,4r)-4-((2-methyl-5-((1-methyl-1H-pyrazol-4-yl)amino)thiazolo[5,4-d]pyrimidin-7-yl)amino)cyclohexyl)piperidin-4-ol]: the IC50 in assay [1] was at most 1000 nM; in assay [2] (setting [3]), at least 500 nM.

As to `CCc1nc2c(N[C@H]3CC[C@@H](N4CCC(F)(F)CC4)CC3)nc(Nc3cnn(C)c3)nc2s1` [Compound I-12, N7-((1s,4s)-4-(4,4-difluoropiperidin-1-yl)cyclohexyl)-2-ethyl-N5-(1-methyl-4H-pyrazol-4-yl)thiazolo[5,4-d]pyrimidine-5,7-diamine], the values for the IC50 in assay [1], in assay [2] (setting [3]) and in assay [2] (setting [4]) were at most 1000 nM, 250 to 500 nM and 250 to 500 nM, respectively.

For the compound `CCc1nc2c(N[C@H]3CC[C@H](N4CCOCC4)CC3)nc(Nc3cnn(C4CCC(O)CC4)c3)nc2s1` (stereo partly shown) [Compound I-32, 4-(4-((2-ethyl-7-(((1r,4r)-4-morpholinocyclohexyl)-amino)thiazolo[5,4-d]pyrimidin-5-yl)amino)-1H-pyrazol-1-yl)cyclohexan-1-ol], the IC50 in assay [1] is at most 1000 nM; in assay [2] (setting [3]), at most 250 nM; in assay [2] (setting [4]), at most 250 nM.

For `CCn1cc(Nc2nc(N[C@H]3CC[C@H](N4CCOCC4)CC3)c3nc(C)sc3n2)cn1` [Compound I-36, N5-(1-ethyl-1H-pyrazol-4-yl)-2-methyl-N7-((1r,4r)-4-morpholinocyclohexyl)thiazolo[5,4-d]pyrimidine-5,7-diamine], the IC50 in assay [1] is at most 1000 nM; in assay [2] (setting [3]) it was 250 to 500 nM; in assay [2] (setting [4]) it was at most 250 nM.

For `CCc1nc2c(O[C@H]3CC[C@H](N4CCOCC4)CC3)nc(Nc3cnn(C4CCOCC4)c3)nc2s1` [Compound I-26, 2-ethyl-7-(((1r,4r)-4-morpholinocyclohexyl)oxy)-N-(1-(tetrahydro-2H-pyran-4-yl)-1H-pyrazol-4-yl)thiazolo[5,4-d]pyrimidin-5-amine], the IC50 was at most 1000 nM in assay [1], at most 250 nM in assay [2] (setting [3]) and at most 250 nM in assay [2] (setting [4]).

In the case of `CCc1nc2c(N[C@H]3CC[C@H](N4CCC5(CC4)COC5)CC3)nc(Nc3cnn(C4CCOCC4)c3)nc2s1` [Compound I-14, N7-((1r,4r)-4-(2-oxa-7-azaspiro[3.5]nonan-7-yl)cyclohexyl)-2-ethyl-N5-(1-(tetrahydro-2H-pyran-4-yl)-1H-pyrazol-4-yl)thiazolo[5,4-d]pyrimidine-5,7-diamine], the values for the half-maximal inhibitory concentration (IC50) in assay [1], in assay [2] (setting [3]) and in assay [2] (setting [4]) were at most 1000 nM, at most 250 nM and at most 250 nM, respectively.

`CC(C)c1nc2c(N[C@H]3CC[C@H](N4CCOCC4)CC3)nc(Nc3cnn(C)c3)nc2s1` [Compound I-47, 2-isopropyl-N5-(1-methyl-1H-pyrazol-4-yl)-N7-((1r,4r)-4-morpholinocyclohexyl)thiazolo[5,4-d]pyrimidine-5,7-diamine] yielded an IC50 in assay [1] of at most 1000 nM.

The values are drawn from patent US9518065B2, “IRAK inhibitors and uses thereof” (NIMBUS IRIS, INC., priority 2013, dated 2016).
